In US20250263671A1, “NEURON-INNERVATED ASSEMBLOIDS AND METHODS OF MAKING THE SAME” (University of Georgia Research Foundation, Inc., priority 2024, published 2025):
Entries after “also recorded” stand apart in the source; their conditions may differ.

Key:
neonatal mouse hearts = details: symN lesions in neonatal mouse hearts; cited from earlier work
hSCAs [1] = test: labetalol treatment during hSCA development: assembloid size and cell count; assay type: cell-based, human
Description: (§1) The effect of SymN activation on heart development has been reported, potentially through NE and adrenergic signaling^22,23. […] To test if the symNs in hSCAs play a regulatory role on cardiac development and maturation, the assembloids were treated with α- and β-adrenergic receptor antagonist labetalol (LAB, 1 μM) to fully block the NE signaling during the growth of the hSCAs (FIG. 4B). The drug was given from wk3, the stage when the assembloid growth almost reaches its plateau (FIG. 1E). Given that symN activity may promote cellular hyperplastic to hypertrophic transition of CM^22,23, the overall size of hSCAs was compared on wk5 after LAB treatment.

hSCAs [2] = test: RT-qPCR of wk5 hSCAs for cardiac maturity markers after labetalol treatment; assay type: cell-based, human; details: LAB 1 μM given from wk3, wk5 hSCAs, vs DMSO
Description: (§2) 0.5×10^6 cells were collected using Trizol (Invitrogen, 15596026) for each sample. Reverse transcription with 1 μg total RNA was performed using iScript™ Reverse Transcription Supermix (Bio-Rad, 170884). SYBR green (Bio-Rad) RT-qPCR was ran using CFX96 Touch Deep Well Real-Time PCR Detection System (Bio-Rad), and analyzed by CFX Maestro.
as §1

hPSC-derived CMs = details: CMs alone, without physical connection with symNs; cited from earlier work
symNs within the hSCAs = details: nicotine 1 μM, wk5 hSCAs
Description: To assess symN activity, calcium (Ca^2+) imaging was performed using Fluo-4 Ca^2+ labeling. To be able to distinguish Ca^2+ fluxes in symNs and not in cardiac tissues, symNblast were differentiated using the EF1-RFP reporter hPSC line and mixed with unlabeled cardiac progenitors (FIG. 3F).

hPSC-derived symNs = details: nicotine treatment; cited from earlier work
hypoxic hSCAs = test: low oxygen (hypoxia-induced) cardiac infarction model on wk5 hSCAs; assay type: cell-based, human
Description: as §2
Wk5 hSCAs were fed with hSCA medium and placed into the hypoxia chamber (incubator subchamber system with O2/CO2 setpoint control, BioSpherix) with 10% O2, control group was maintained in regular culture condition (21% O2). hSCAs in both conditions were fed with fresh hSCA medium every 3 days for 10 days.
To test the effect of sympathetic input to cardiac function in the assembloids in a diseased state, a strategy was developed to model myocardial infarction. A model of myocardial infarction in cardiac organoids has been described^55. In this model, a moderate hypoxic environment (10% O2) was applied, which prevented massive and sudden cell death in 3D cardiac microtissues and allowed the observation of the progression of infarction. In addition to hypoxia, exogenous NE was added to the cardiac organoids to mimic the effects of increased sympathetic tone to the heart. […] The hypoxic stress stimulated overproduction of endogenous NE from symNs in hSCAs, measured via the NS510 probe and ELISA (FIG. 5C). […]

**Q.** With NCCc1cc(O)c(O)cc1O [6-OHDA, 6-hydroxydopamine] as the molecule, how does the “proliferation of CMs” value (neonatal mouse hearts) read?
**A.** The value was “increased”.

**Q.** What does the source list for CC(CCc1ccccc1)NCC(O)c1ccc(O)c(C(N)=O)c1 (stereo not drawn) [LAB, labetalol]?
**A.** overall size of hSCAs (hSCAs [1]; LAB 1 μM given from wk3, compared on wk5, vs DMSO): Differences in assembloid size were not observed; also recorded: not altered; hSCA cell number (hSCAs [1]; LAB-treated organoids compared to control, wk5): not altered; expression of markers of CM maturity (CX43, α-ACTININ, and CD36), RT-qPCR (hSCAs [2]): decreased expressions

**Q.** With CC(C)NCC(O)c1ccc(O)c(O)c1 (stereo not drawn) [isoproterenol] as the molecule, how does the “improvement of CM maturity (mature cardiac gene expression, functional cardiac activity)” value (hPSC-derived CMs) read?
**A.** The value was “not sufficient to induce such maturity improvement”.

**Q.** Which hSCA beating efficiency (symNs within the hSCAs) does the source give for CN1CCCC1c1cccnc1 (stereo not drawn) [nicotine] here?
**A.** The hSCA beating efficiency was “increased hSCA beating efficiency”.

**Q.** What about the “spontaneous firing of action potentials” value (hPSC-derived symNs) of the same molecule?
**A.** Its value is “upregulated”.

**Q.** With CC(C)NCC(O)COc1cccc2ccccc12 (stereo not drawn) [propranolol] as the molecule, how does the “impaired expression of Ca2+ handling genes, RT-qPCR” value (hypoxic hSCAs; propranolol 1 μM in addition to low oxygen (10% O2, 10 days)) read?
**A.** Its value is “rescued”.

**Q.** What about the “cardiac fibrosis caused by hypoxic stress” value (hypoxic hSCAs; propranolol along with the hypoxic stress) of the same molecule?
**A.** Its value is “rescued”.
